Values of other authors, collected in patent USRE46284E1, “Method of administrating an anticancer drug containing α, α, α-trifluorothymidine and thymidine phosphorylase inhibitor” (TAIHO PHARMACEUTICAL CO., LTD., priority 2005, dated 2017).

Details: human, intravenous administration

For `O=c1[nH]c(=O)n([C@H]2C[C@H](O)[C@@H](CO)O2)cc1C(F)(F)F` [FTD, α,α,α-trifluorothymidine], which “half-life in the blood” value is on record?
Its value is “approximately 12 minutes”.
